Reference: patent publication US20180250306A1, “ALDEHYDE CONJUGATES AND USES THEREOF” (ALDEYRA THERAPEUTICS, INC., priority 2015, published 2018)

Legend:
NFκB = assay: Western Blot of NFκB levels in cardiac fibroblasts; type: cell-based, neonatal rats
Experimental: Thirty hearts from neonatal rats were minced and digested (Neonatal Cardiomyocyte Isolation System, LK003303, Worthington). After tissue digestion and cell dissociation, cell suspensions were plated into 35 mm dishes or onto coverslips in wells of 24-well plates. Serum-free DMEM was added to the cell suspensions and the cells allowed to adhere for 2 hrs. After two hours, the cell suspension was removed and the adherent cells were fed with DMEM containing 10% fetal bovine serum (FBS). Cells were maintained in DMEM+10% FBS for 24 hours before treatments. Treatment duration was 24 hours.
Cell samples were divided in to 2 groups, stimulated with H2O2 or not stimulated with H2O2. […] The cells that were treated with H2O2 contained a final concentration of 0.001% in the wells. Drug was dissolved in 9.5% Captisol®, to a stock concentration of 5 mg/ml. […] Cells were treated for 24 hours then either fixed for immunostaining or collected as lysates for Western Blot analysis.
Whole cell lysates were used for Western blotting; nuclear and cytosolic fractions were not prepared. DMEM from cells plated in 35 mm plates was removed, the cells rinsed quickly in PBS, then incubated in 500 ul cold RIPA buffer for 20-30 minutes at 4° C. under gentle rocking. Following RIPA incubation, cells were scraped from the dish using cell scrapers and frozen at −80° C. overnight to increase cell lysing. […]

[1] = Consumption of 4HNE over time (HPLC, 254 nm)
From the text: 5 of 6 samples show consumption of 4HNE. One sample (2-(3-aminoquinolin-2-yl)propan-2-ol) overlaps 4HNE HPLC peak using current method. Best fit lines over this period give poorer fit to data than product formation data. Rate of 4HNE consumption can be used as an approximation of binding kinetics. […] The data were used to rank relatively each of the samples examined, including NS-2 but excluding 2-(3-aminoquinolin-2-yl)propan-2-ol.

[2] = system: Primary rat cortical cultures; assay: LDH cytotoxicity assay, aldehyde-mediated cell death in neurons; type: cell-based
Experimental: Primary rat cortical cultures are placed in an incubator for 24 or 48 hours and treated with various concentrations of disclosed compounds. Then 20 μL of the culture media is removed for an LDH assay as described in Bergmeyer et al., Methods of Enzymatic Analysis, 3rd ed. (1983).

[3] = hamster cheek pouch radiation; cited from earlier work

CC(C)(O)c1nc2ccc(Cl)cc2cc1N [NS2, 2-(3-amino-6-chloroquinolin-2-yl)propan-2-ol]
NFκB level (Western Blot, whole cell lysate) (NFκB; H2O2-stimulated cells, 100 μM or 1 mM): significant decreases | NFκB level (Western Blot, whole cell lysate) (NFκB; non-stimulated cells): significantly decreased | Gradient of 4HNE consumption ([1]; 23 h): (Gradient −0.04, | Gradient of 4HNE consumption ([1]; first 7 h, analysis at 254 nm): (Gradient −0.15, | Consumption of 4HNE, ranking, 7 Hours ([1]; rank from most effective (1) to least): 1 | Consumption of 4HNE, ranking, 23 Hours ([1]; rank from most effective (1) to least, ranks 1-4 essentially identical): 3 | aldehyde-mediated cell death in neurons [2]: prevent | overall fibrosis at the site of injury over time [3]: decrease | rate of recovery from injury [3]: significant increase
